Source: patent US4632932A, “Antimycotic agents” (Bayer Aktiengesellschaft, priority 1982, dated 1986)

Tests used:
[1] = test system: dermatophytes, moulds and yeasts; experiment: Antimycotic in vitro activity, series dilution test, overall comparison; format: cell-based
Procedure: (§1) Description of the experiment:
(§2) The in vitro tests were carried out in a series dilution test with germ inocula of an average of 5×10^4 germs/ml of substrate. The nutrient medium was (a) for dermatophytes and moulds: Sabourand's milieu d'epreuve and (b) for yeasts: meat extract/glucose broth.
(§3) The incubation temperature was 20° C. and the duration of incubation was 24 to 96 hours in the case of yeasts and 96 hours in the case of dermatophytes and moulds.

[2] = test system: trichophyton of mentagrophytes; experiment: Antimicrobial in vivo activity (local) in the model of experimental guinea-pig trichophytosis; details: once daily, 15% strength solution
Candida cells = experiment: Antimycotic in vivo activity (oral) in candidosis of mice; parameters: species or system Mice of the SPF-CF1 type; details: 50-100 mg/kg
Procedure: Description of the experiment
Mice of the SPF-CF1 type were infected intravenously with 1-2×10^6 logarithmically growing Candida cells, which are suspended in physiological sodium chloride solution. The animals were treated orally one hour before and seven hours after the infection, with, in each case, 50-100 mg/kg of body weight of the formulations.
Untreated animals died 3 to 6 days after infection. The survival rate on the 6th day after infection was about 5% in the case of untreated control animals.

Trichophyton mentagr. = experiment: Antimycotic in vitro activity, series dilution test (MIC), Trichophyton mentagr.; format: cell-based; parameters: unit not given here; details: Sabourand's milieu d'epreuve, 20° C., 96 hours
Procedure: as §1, §2, §3

Aspergillus fumigatus = experiment: Antimycotic in vitro activity, series dilution test (MIC), Aspergillus fumigatus; format: cell-based; parameters: unit not given here; details: Sabourand's milieu d'epreuve, 20° C., 96 hours
Procedure: as §1, §2, §3

Torulopsis glabrata = experiment: Antimycotic in vitro activity, series dilution test (MIC), Torulopsis glabrata; format: cell-based; parameters: unit not given here; details: meat extract/glucose broth, 20° C., 24 to 96 hours
Procedure: as §1, §2, §3

Candida albicans = experiment: Antimycotic in vitro activity, series dilution test (MIC), Candida albicans; format: cell-based; parameters: unit not given here; details: meat extract/glucose broth, 20° C., 24 to 96 hours
Procedure: as §1, §2, §3

Microsporum canis = experiment: Antimycotic in vitro activity, series dilution test (MIC), Microsporum canis; format: cell-based; parameters: unit not given here; details: Sabourand's milieu d'epreuve, 20° C., 96 hours
Procedure: as §1, §2, §3

Compound	antimycotic action in vitro compared with compounds (A), (B), (C) and (D) [1]	action (statement in words) [2]	action compared with compounds (A), (B), (C) and (D) (Candida cells)	other results
CC1(C(O)(C=Cc2ccc(Cl)cc2)Cn2cncn2)COCOC1 (stereo not shown) [Example 12]	better antimycotic action	–	–	–
CC(C)(C1OCCO1)C(O)(CCc1ccc(Cl)cc1)Cn1cncn1 (stereo not shown) [Example 7]	better antimycotic action	an action or a good action	better action	–
CC(C)(C1OCCO1)C(O)(COc1ccc(Cl)cc1)Cn1cncn1 (stereo not shown) [Example 15]	better antimycotic action	–	better action	–
1-(2-methylphenoxy)-3,3-dimethyl-2-(1,2,4-triazol-1-yl-methyl)-2-butanol [(C)]	–	–	–	MIC values (Trichophyton mentagr.): 32; MIC values (Aspergillus fumigatus): > 64; MIC values (Torulopsis glabrata): > 64; MIC values (Candida albicans): 32
CC(C)(C1OCCO1)C(O)(C=Cc1ccc(Cl)cc1Cl)Cn1cncn1 (stereo not shown) [Example 11]	better antimycotic action	–	–	–
CC1(C(O)(COc2ccc(Cl)cc2)Cn2ccnc2)COCOC1 (stereo not shown) [Example 26]	–	–	better action	–
CC(C)(C1OCCO1)C(O)(CCc1ccc(Cl)cc1)Cn1ccnc1 (stereo not shown) [Example 19]	better antimycotic action	an action or a good action	better action	–
1-(2-methylphenoxy)-3,3-dimethyl-2-(imidazol-1-yl-methyl)-2-butanol [(B)]	–	–	–	MIC values (Trichophyton mentagr.): 4; MIC values (Aspergillus fumigatus): 32; MIC values (Torulopsis glabrata): > 64; MIC values (Candida albicans): 32; MIC values (Microsporum canis): 4
CC1(C(O)(CCc2ccc(Cl)cc2Cl)Cn2ccnc2)COCOC1 (stereo not shown) [Example 21]	better antimycotic action	an action or a good action	better action	–
CC1(C(O)(CCc2ccc(Cl)cc2Cl)Cn2cncn2)COCOC1 (stereo not shown) [Example 8]	better antimycotic action	an action or a good action	better action	–
CC1(C(O)(CCc2ccc(Cl)cc2)Cn2ccnc2)COCOC1 (stereo not shown) [Example 22]	–	an action or a good action	better action	–
CC(C)(C1OCCO1)C(O)(COc1ccc(-c2ccccc2)cc1)Cn1cncn1 (stereo not shown) [Example 14]	better antimycotic action	an action or a good action	better action	–
CC1(C(O)(COc2ccc(Cl)cc2)Cn2cncn2)COCOC1 (stereo not shown) [Example 16]	better antimycotic action	–	better action	–
CC(C)(C1OCCO1)C(O)(CCc1ccc(Cl)cc1Cl)Cn1cncn1 (stereo not shown) [Example 5, 1-(2,4-dichlorophenyl)-4-(1,3-dioxolan-2-yl)-4-methyl-3-(1,2,4-triazol-1-yl-methyl)-pentan-3-ol naphthalene-1,5-disulphonate]	better antimycotic action	–	–	–
CC(C)(C1OCCO1)C(O)(C=Cc1ccc(Cl)cc1)Cn1ccnc1 (stereo not shown) [Example 23]	better antimycotic action	an action or a good action	better action	–
CC(C)(C1OCCO1)C(O)(Cn1cncn1)c1ccc(Cl)cc1 (stereo not shown) [Example 3, 3-(1,3-dioxolan-2-yl)-2-(4-chlorophenyl)-3-methyl-1-(1,2,4-triazol-1-yl)-butan-2-ol]	better antimycotic action	–	better action	–
CC(C)(C1OCCO1)C(O)(C=Cc1ccc(Cl)cc1)Cn1cncn1 (stereo not shown) [Example 10]	better antimycotic action	an action or a good action	better action	–
CC(C)(C1OCCO1)C(O)(CCc1ccc(Cl)cc1Cl)Cn1ccnc1 (stereo not shown) [Example 20]	better antimycotic action	an action or a good action	better action	–
CC1(C(O)(CCc2ccc(Cl)cc2)Cn2cncn2)COCOC1 (stereo not shown) [Example 9]	better antimycotic action	an action or a good action	better action	–
CC1(C(O)(C=Cc2ccc(Cl)cc2)Cn2cncn2)COCOC1 (stereo not shown) [Example 13]	better antimycotic action	–	–	–
